Source: patent EP2033655B1 (priority 2007, dated 2009)
Side chains are listed from the residue outwards. Peptide text beside a SMILES is read from it. * marks the point of attachment. X1 = NCCCC[C@H](N)CN1CCC[C@H]1C(=O)*

Target: T1, cell-surface expressed nucleolin (Homo sapiens, UniProt P19338)
T1 construct: endogenous in cells; host or cells: HeLa P4 cells
Experiment: cell-based

T1 sequence (P19338 whole entry): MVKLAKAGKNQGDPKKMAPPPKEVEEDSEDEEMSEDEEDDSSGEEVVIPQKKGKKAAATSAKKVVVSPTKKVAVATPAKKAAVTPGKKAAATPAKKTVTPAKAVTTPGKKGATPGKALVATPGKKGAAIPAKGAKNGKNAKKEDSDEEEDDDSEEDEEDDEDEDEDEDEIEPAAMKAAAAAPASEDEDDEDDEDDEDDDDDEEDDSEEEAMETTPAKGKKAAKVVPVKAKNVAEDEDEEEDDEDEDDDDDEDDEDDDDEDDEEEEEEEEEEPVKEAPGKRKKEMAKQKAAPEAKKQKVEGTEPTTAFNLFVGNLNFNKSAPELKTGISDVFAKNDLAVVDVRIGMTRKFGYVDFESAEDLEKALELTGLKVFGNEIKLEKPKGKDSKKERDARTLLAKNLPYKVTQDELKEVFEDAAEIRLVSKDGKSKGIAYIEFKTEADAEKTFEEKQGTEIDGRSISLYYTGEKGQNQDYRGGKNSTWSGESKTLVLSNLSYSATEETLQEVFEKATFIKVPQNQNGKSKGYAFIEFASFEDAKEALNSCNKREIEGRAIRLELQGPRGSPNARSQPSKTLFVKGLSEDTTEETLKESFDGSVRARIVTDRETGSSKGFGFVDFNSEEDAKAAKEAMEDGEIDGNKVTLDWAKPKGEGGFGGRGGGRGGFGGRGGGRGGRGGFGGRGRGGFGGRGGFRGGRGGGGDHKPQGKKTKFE

Compound: CC(=O)N[C@@H](CCCCNC(=O)[C@H](CCCNC(=N)N)NC(=O)[C@@H]1CCCN1C[C@@H](N)CCCCN)C(=O)N[C@@H](C)C(=O)N[C@@H](CCCCNC(=O)[C@H](CCCNC(=N)N)NC(=O)[C@@H]1CCCN1C[C@@H](N)CCCCN)C(=O)N1CCC[C@H]1C(=O)NCC(=O)N[C@@H](CCCCNC(=O)[C@H](CCCNC(=N)N)NC(=O)[C@@H]1CCCN1C[C@@H](N)CCCCN)C(=O)N[C@@H](C)C(=O)N[C@@H](CCCCNC(=O)[C@H](CCCNC(=N)N)NC(=O)[C@@H]1CCCN1C[C@@H](N)CCCCN)C(=O)N1CCC[C@H]1C(=O)NCC(=O)N[C@@H](CCCCNC(=O)[C@H](CCCNC(=N)N)NC(=O)[C@@H]1CCCN1C[C@@H](N)CCCCN)C(=O)N[C@@H](C)C(=O)N[C@@H](CCCCNC(=O)[C@H](CCCNC(=N)N)NC(=O)[C@@H]1CCCN1C[C@@H](N)CCCCN)C(=O)N1CCC[C@H]1C(=O)NCC(N)=O [Nucant 7] (Ac-K([Arg-X1])AK([Arg-X1])PGK([Arg-X1])AK([Arg-X1])PGK([Arg-X1])AK([Arg-X1])PG-NH2)
- IC50: < 100 nM
- inhibition at 0.8 µM (HeLaP4, read-out: inhibitory activity): > 95%
